# The METLIN SMRT retention time set (Domingo-Almenara et al. 2019)
# Test: gradient 5% acetonitrile 3 min, to 50% in 2 min, to 85% in 15 min, held 3 min, 100 µL/min
# Conditions: column: Zorbax Extend-C18 2.1 x 50 mm; eluents: water / acetonitrile, 0.1% formic acid
# In short: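 Pure standards were analyzed in mixtures of ~100 molecules using HPLC coupled to a quadrupole time-of-flight mass spectrometer, in both positive and negative ionization mode. Separation used a Zorbax Extend-C18 column (2.1 × 50 mm, 1.8 μm) at 100 μL/min, with water and acetonitrile each containing 0.1% formic acid. Dead and dwell volumes were 40 μL and 900 μL, and data were collected over 3 months. Retention time was read from computationally picked adduct peaks, each inspected manually.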
row,SMILES,RP-LC retention time [s]
1,COC(=O)c1ccc(NC(=O)N2CC(C)Oc3ccc(C)cc32)cc1 (centres undefined),1220
2,CC(=O)[C@@]1(O)[C@H](C)C[C@H]2[C@@H]3C=C(C)C4=Cc5c(cnn5-c5ccccc5)C[C@]4(C)[C@H]3[C@@H](O)C[C@@]21C,1200
3,CC1=C(c2ccc(C)c(C)c2)S(=O)(=O)N=C1N1CCC(C(=O)NCCN2CCOCC2)CC1,648
4,Cc1nn(C)c2nc(OC(C)C(=O)NCc3ccc(F)cc3)cc(C(F)(F)F)c12 (centres undefined),960
5,Cc1cc(C)n(-c2ncnc3c2cnn3Cc2ccccc2Cl)n1,1330
6,CC(C)Oc1cc2oc(=O)cc(-c3ccccc3)c2cc1CCC(=O)N1CCN(c2ccccn2)CC1,647
7,Cn1nc(-c2nnc(-c3ccc(F)cc3)o2)c2c1CCN(S(=O)(=O)c1ccccc1F)C2,937
8,COC1CN(c2cccc(F)c2)C12CCN(Cc1ccc(C)o1)CC2 (centres undefined),745
9,Cc1ccc(-c2cc3c4nnc(SCC(=O)Nc5cc(F)ccc5C)n4ccn3n2)cc1C,1080
10,CC(C)CCNC(=O)C12CCCC=C1N(c1ccccc1)C(=O)CC2 (centres undefined),819
11,O=C(Cn1ncc2c(c1=O)N(C1CC1)C(=O)CS2)Nc1ccc2c(c1)OCCO2,693
12,CC(C)S(=O)(=O)N[C@H]1CCOC[C@@H]1c1ccc(-c2ccc(C#N)s2)cc1,958
13,O=C(Cn1cnc2nc(N3CCCC(C(=O)NC4CC4)C3)sc2c1=O)Nc1cccc(F)c1 (centres undefined),655
14,Cc1ccc(C2=NC3(CCN(C(=O)c4ccn[nH]4)CC3)ON2)cc1,680
15,C=CC(=O)Nc1cccc(Oc2nc(Nc3ccc(N4CCN(C)CC4)cc3OC)ncc2Cl)c1,718
16,CCCCOc1ccc(NC(=O)c2oc3ccc(F)cc3c2C)c2cccnc12,850
17,CSc1ccccc1CN1CCC(CNC(=O)c2ccco2)CC1,548
18,CCc1ccc2c(c1)cc(S(=O)(=O)c1ccccc1)c(=O)n2CC(=O)NC1CCCC1,942
19,COc1ccccc1-c1nc(Cn2nnc(-c3nc(-c4cccc(F)c4)no3)c2C)c(C)o1,1130
20,NC(=O)CSc1nc(-c2ccccc2)c(NC(=O)c2cc3ccccc3o2)s1,797
21,CCC(=O)Nc1nc(-c2ccc3c(c2)N(CC)C(=O)CO3)c(C)s1,812
22,CCOC(=O)c1nc(SC)n(C)c1C(=O)OCC,834
23,CCCN(C)S(=O)(=O)c1cc(-c2nc(C(C)(C)C)cs2)cs1,1330

row,SMILES,RP-LC retention time [s]
1,CC(=O)N(C)CCc1noc(C2CN(C(=O)c3c(C)noc3C)C2)n1,595
2,CCOCCCNC(=O)C1CCCN(c2nc3ccccc3n(Cc3ccc(C)cc3)c2=O)C1 (centres undefined),1080
3,COc1ccccc1-c1noc(C2CCCN2C(=O)c2cccc(OC)c2OC)n1 (centres undefined),993
4,O=C(CSc1nnc(-c2cccc(S(=O)(=O)N3CCOCC3)c2)o1)c1ccccc1,847
5,COc1ccc(NC(=O)Cn2nc3nc(N4CCCC(C)C4)ccn3c2=O)cc1Cl (centres undefined),717
6,CC(=O)c1cccc(NC(=O)Cn2cccc2-c2nc(-c3ccccc3)no2)c1,988
7,COC(=O)c1c(C)[nH]c(C(=O)N2CCC(CC(=O)NCc3cccc(Br)c3)CC2)c1C,800
8,COCCn1c(CC2CCN(C(=O)Nc3cccc(Cl)c3C)C2)nc2cccnc21 (centres undefined),631
9,COc1ccc(NC(=O)CSc2nccc(N3CCCC3)n2)cc1Cl,593
10,COc1ccccc1N(CN1CCCC1=O)C(=O)COc1ccccc1,699
11,O=C(c1cc(C2CC2)[nH]n1)N1CCCCC1,661
12,O=C(c1cnccn1)N1CCCC1c1noc(CO)n1 (centres undefined),572
13,O=C(Nc1ccc2c(c1)OCCO2)N1CCN(c2cc(-c3ccccc3)ncn2)CC1,645
14,Cc1csc2nc(CNS(=O)(=O)c3cccnc3)cn12,544
15,COC(=O)c1ncn2c1C(=O)N(c1ccccc1C)C(C)(C(=O)NCc1ccc(C)cc1)C2 (centres undefined),726
16,Cc1cccc(CN2CC(=O)N(c3cccc(C)c3)[C@@H]3CS(=O)(=O)C[C@@H]32)c1,826
17,COc1ccc(CNC(=O)C2CCN(c3nccnc3Sc3ccccc3)CC2)c(OC)c1,983
18,COc1ccccc1-c1nc2cnccn2c1NCCC(=O)NC1CCCCC1,673
19,CSc1cccc(NC(=O)C2CCCN(c3cnc4nc(C)c(C)nc4c3)C2)c1 (centres undefined),807
20,Cc1sc(C)c(C(=O)NC2(c3ccc(C(=O)O)cc3)CC2)c1Cc1ccc(C(F)(F)F)cc1,1070
21,CCN1CCN(C(=O)C2CC(c3ccccc3)=NO2)CC1 (centres undefined),593
22,Cc1ccc(NC(=O)Nc2cccn3nc(C)nc23)cc1,803
23,CN(C)S(=O)(=O)c1ccc2c(c1)N(CC(=O)NCc1cccc(Cl)c1)C(=O)C1CCCCN21 (centres undefined),957

row,SMILES,RP-LC retention time [s]
1,COc1ccc(CCC(=O)NCC2CCN(C(=O)NC(C)(C)C)CC2)cc1,687
2,CCC(=O)Nc1ccc(C2(C(=O)NCCN3CCCC3)CCCCC2)cc1,606
3,CSc1ccc(-c2nc3c(C)cccn3c2NC2CCCCC2)cc1,868
4,COC(=O)c1ccc(OC)c(Cn2cnc3c(-c4cccc(F)c4)csc3c2=O)c1,1080
5,COCCN1C(=O)Cc2ccccc2C1C(=O)NCc1ccco1 (centres undefined),676
6,Cc1ccc2c(Nc3ccc(F)cc3C)c(-c3nc(C)no3)cnc2n1,756
7,CCC(=O)N1CCc2c(sc3ncnc(N4CCc5ccccc54)c23)C1,734
8,Cc1ccc(S(=O)(=O)N2CCC3(CC2)NCCN=C3NCc2ccccc2C)c(C)c1,788
9,COc1ccc(OCc2noc(CNC(=O)c3ccccc3Cl)n2)cc1,793
10,O=c1cc(CSc2nnc(-c3cccc(Cl)c3)o2)nc2sccn12,832
11,O=C(c1c(F)cccc1F)N1CCN=C1SCc1cccnc1,582
12,O=C(Cn1cccc1-c1nc(-c2ccc3c(c2)OCO3)no1)Nc1cc(F)ccc1Cl,1110
13,CSc1ccc(CNC(=O)c2cn3cc(Cl)ccc3n2)cc1,895
14,Cc1ccc(C)c(Cn2nnc(C(=O)O)c2-c2ccncc2)c1,650
15,COc1ccc2c(CCNC(=O)Nc3ccc(Cl)cc3)c[nH]c2c1,711
16,COC(=O)c1cc(S(=O)(=O)N2CCCC2C(=O)Nc2nc3ccc(OC)cc3s2)cn1C (centres undefined),893
17,CSc1ccc(-c2nc3cnccn3c2NC2CCCC2)cc1,914
18,Cc1nc(C)c(C(=O)N2CCCCCNC(=O)[C@@H]3CCC[C@@H]32)s1,638
19,Cc1ccc(-c2cc(C(=O)NCC(C)C)n(C)c2)cc1,1070
20,Cc1ccc(Nc2nc(C(=O)NCc3cccnc3)nc3ccccc23)cc1,609
21,COc1ccc(OC)c(NC(=O)N2CCCC(C)(C(=O)NCc3ccc(C)cc3)C2)c1 (centres undefined),932
22,CCc1ccc(NC(=O)N2CCC(n3cnc4cc(Cl)ccc4c3=O)CC2)cc1,877
23,CC(C)NC(=O)c1ccc(OCC2CCN(C(=O)Cc3ccc(F)cc3)CC2)cc1,860

row,SMILES,RP-LC retention time [s]
1,Cc1nc(-c2ccc(C(=O)N3CCC(C)CC3)cc2)cs1,904
2,O=C(Nc1ccc(N2CCCCCC2)c(C(=O)O)c1)c1cccs1,657
3,COc1ccccc1Nc1c(-c2ccc(N3CCOCC3)cc2)nc2cnccn12,806
4,Cc1cc(C)c(-c2csc(Nc3ccc(F)cn3)n2)cc1C,1210
5,Cc1ccc(CNS(=O)(=O)c2cn(CC(C)C)c3ncccc23)cc1,1050
6,Cc1ccc(C(=O)N2CCCCCNC(=O)[C@@H]3CCC[C@@H]32)s1,740
7,COc1ccc2[nH]c(C(=O)N3CCN(C(=O)c4ccco4)CC3)cc2c1,706
8,NC(=O)C1(c2cccc(F)c2)CC1,694
9,O=C(NCc1ccccc1)C1CCCN(c2ncnc3c2oc2ccccc23)C1 (centres undefined),754
10,Cc1cc(C)n(-c2ccnc(N3CCC(C(=O)NCCC(C)C)CC3)n2)n1,836
11,O=C(NCCc1csc(C2CCCN(C(=O)C3CC3)C2)n1)C1CCC1 (centres undefined),682
12,COc1cccc(-c2noc(-c3nn(-c4cccc(F)c4)ccc3=O)n2)c1OC,807
13,OC[C@H]1O[C@@H](n2cnc3c(N[C@H]4CCC[C@@H]4O)ncnc32)[C@@H](O)C1O (some centres undefined),590
14,O=C1Nc2ccccc2SC1C(=O)N1CCC(C(=O)N2CCN(C3CCCCC3)CC2)CC1 (centres undefined),590
15,CCN1CCCn2cc(S(=O)(=O)N3CCOCC3)cc2C1=O,614
16,CCn1c(SC)nnc1-c1nn(C)c2c1CN(C(=O)c1ccc(F)cc1)CC2,763
17,CCn1nnc2ccc(-c3noc(Cc4ccccc4C)n3)cc21,1030
18,Cc1cc2nn(CC(=O)Nc3ccccc3)c(=O)n2c(-c2ccc(F)cc2)n1,800
19,COc1ccc(C2C(C(=O)NCCC(C)C)CCC(=O)N2c2cc(OC)c(OC)c(OC)c2)cc1 (centres undefined),744
20,CC(C)(C)CNC(=O)c1cc(=O)[nH]c2ccccc12,869
